Data: US6495715B2, “Calcium channel blockers” (Warner-Lambert Company, priority 1997, dated 2002)

Key:
[1] = molecular target: T1, N-type Ca2+ channel (Homo sapiens, UniProt Q00975); assay: Measurement of N-type Ca2+ channel blocking potencies in IMR-32 cells using the fluorescent Ca2+ indicator Indo-1; format: cell-based; details: for IC50: K+-stimulated Ca2+ flux, 5 μM nitrendipine to block L-type channels; for inhibition at 1 µM: read-out: IMR 32 % of Blockade @ 1 μM; for inhibition at 10 µM: read-out: IMR 32 % of Blockade @ 10 μM
T1 construct: host or cells: IMR-32 cells, differentiated with dibutyryl cAMP and bromodeoxyuridine
T1 sequence (Q00975 whole entry): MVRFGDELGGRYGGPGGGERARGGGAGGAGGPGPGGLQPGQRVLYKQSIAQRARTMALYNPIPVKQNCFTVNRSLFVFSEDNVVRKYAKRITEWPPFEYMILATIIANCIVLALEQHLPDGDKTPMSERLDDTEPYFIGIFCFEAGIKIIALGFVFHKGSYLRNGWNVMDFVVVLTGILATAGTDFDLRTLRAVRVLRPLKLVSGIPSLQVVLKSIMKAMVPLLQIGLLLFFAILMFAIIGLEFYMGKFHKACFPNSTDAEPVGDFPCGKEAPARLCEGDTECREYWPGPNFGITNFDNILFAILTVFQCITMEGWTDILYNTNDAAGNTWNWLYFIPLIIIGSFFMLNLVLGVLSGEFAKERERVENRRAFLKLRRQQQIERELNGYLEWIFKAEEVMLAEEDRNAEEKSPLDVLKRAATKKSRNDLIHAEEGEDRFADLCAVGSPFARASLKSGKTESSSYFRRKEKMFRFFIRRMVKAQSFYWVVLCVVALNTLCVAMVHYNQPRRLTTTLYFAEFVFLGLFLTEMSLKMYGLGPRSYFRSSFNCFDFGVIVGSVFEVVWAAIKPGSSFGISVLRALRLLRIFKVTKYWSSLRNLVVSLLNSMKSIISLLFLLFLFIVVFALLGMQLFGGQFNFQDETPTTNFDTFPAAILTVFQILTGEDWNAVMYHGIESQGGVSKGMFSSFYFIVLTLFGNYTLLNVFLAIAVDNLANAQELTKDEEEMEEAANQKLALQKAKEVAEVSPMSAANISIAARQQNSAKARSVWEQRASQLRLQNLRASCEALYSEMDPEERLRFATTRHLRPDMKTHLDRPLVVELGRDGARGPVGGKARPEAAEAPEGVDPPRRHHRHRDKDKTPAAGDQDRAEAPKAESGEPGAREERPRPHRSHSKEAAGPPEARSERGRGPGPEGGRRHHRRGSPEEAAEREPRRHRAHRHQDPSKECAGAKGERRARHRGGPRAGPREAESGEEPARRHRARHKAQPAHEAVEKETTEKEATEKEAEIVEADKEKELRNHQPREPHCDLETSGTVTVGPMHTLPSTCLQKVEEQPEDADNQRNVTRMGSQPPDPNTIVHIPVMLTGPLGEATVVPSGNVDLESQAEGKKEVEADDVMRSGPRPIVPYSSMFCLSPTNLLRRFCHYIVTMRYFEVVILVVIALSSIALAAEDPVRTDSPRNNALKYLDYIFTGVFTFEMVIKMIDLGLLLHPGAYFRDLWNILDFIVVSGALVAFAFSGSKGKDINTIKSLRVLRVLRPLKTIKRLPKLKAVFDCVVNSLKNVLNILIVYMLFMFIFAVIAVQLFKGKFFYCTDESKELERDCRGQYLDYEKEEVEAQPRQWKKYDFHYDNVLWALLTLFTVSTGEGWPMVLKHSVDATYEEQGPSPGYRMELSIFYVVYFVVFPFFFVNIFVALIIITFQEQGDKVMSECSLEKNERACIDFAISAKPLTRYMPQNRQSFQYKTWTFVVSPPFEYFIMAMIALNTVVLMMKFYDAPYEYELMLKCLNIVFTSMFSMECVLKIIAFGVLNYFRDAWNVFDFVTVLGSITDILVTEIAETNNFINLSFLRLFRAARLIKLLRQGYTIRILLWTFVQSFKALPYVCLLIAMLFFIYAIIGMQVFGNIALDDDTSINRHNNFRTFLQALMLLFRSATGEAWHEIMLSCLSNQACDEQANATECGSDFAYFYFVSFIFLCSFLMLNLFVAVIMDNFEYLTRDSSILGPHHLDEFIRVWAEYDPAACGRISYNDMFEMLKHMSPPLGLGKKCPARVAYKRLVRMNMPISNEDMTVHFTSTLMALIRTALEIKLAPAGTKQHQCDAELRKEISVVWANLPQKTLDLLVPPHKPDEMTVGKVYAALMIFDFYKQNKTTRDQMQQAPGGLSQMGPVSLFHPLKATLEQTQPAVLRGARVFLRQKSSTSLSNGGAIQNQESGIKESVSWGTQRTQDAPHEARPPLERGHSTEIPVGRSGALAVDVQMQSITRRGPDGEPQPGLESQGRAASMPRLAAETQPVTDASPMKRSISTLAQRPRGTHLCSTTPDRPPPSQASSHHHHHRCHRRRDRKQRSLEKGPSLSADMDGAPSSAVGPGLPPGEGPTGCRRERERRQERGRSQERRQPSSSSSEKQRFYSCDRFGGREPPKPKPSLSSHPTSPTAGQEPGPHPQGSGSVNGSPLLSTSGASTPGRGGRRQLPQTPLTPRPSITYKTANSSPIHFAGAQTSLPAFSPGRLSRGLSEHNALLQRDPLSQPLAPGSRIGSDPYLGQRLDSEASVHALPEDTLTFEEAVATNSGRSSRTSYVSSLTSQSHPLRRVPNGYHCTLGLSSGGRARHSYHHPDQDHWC
T1 sequence (P54289 25-956 partner limits assumed): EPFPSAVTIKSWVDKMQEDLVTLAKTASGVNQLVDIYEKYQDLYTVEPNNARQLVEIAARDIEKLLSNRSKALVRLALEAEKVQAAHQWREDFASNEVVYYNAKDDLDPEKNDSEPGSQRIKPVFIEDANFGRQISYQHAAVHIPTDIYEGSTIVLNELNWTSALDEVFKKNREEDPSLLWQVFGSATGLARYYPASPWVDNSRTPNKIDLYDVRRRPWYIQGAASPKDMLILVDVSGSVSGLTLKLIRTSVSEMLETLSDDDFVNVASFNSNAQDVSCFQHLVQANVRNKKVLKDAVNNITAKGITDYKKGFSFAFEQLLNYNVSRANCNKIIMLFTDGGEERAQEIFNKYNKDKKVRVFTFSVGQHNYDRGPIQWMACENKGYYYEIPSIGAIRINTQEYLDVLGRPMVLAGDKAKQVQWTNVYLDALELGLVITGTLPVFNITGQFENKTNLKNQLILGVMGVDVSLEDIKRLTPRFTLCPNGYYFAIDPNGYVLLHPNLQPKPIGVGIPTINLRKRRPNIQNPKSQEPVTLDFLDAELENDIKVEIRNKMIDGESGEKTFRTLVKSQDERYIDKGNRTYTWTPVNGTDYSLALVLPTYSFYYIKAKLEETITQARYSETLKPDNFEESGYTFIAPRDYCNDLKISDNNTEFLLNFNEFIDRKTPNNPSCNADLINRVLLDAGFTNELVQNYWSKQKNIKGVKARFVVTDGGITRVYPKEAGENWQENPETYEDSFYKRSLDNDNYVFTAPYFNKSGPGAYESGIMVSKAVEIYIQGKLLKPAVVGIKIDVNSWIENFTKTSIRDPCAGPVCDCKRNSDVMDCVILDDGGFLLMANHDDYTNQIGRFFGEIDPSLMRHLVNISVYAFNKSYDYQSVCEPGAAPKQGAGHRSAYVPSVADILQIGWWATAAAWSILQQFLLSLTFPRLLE
T1 sequence (P54289 957-1103 partner limits assumed): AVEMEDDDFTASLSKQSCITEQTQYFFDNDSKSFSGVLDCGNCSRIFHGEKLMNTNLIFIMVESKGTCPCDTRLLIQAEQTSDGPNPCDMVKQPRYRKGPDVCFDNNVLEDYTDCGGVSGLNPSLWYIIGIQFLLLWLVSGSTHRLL
T1 sequence (Q02641 whole entry partner): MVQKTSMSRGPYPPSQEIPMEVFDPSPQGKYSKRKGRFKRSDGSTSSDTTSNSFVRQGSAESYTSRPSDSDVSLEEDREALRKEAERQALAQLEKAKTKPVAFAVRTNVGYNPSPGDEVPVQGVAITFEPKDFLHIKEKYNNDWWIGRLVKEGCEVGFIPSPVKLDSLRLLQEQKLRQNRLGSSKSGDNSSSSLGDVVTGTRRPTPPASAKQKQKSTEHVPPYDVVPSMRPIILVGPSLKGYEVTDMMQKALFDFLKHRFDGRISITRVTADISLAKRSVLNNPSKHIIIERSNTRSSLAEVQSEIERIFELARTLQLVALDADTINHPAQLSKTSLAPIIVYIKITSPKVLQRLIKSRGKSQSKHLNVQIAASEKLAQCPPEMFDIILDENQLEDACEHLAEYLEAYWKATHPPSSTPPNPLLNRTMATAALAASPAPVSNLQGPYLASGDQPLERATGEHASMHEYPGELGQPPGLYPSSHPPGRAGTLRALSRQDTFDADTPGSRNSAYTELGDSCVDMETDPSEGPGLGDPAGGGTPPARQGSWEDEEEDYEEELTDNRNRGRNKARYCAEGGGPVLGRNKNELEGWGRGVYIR
Experimental: Measurement of N-type Ca^2+ Channel Blocking Potencies of Compounds in IMR-32 Cells Using the Fluorescent Ca^2+Indicator Indo-1
IMR-32 cells are a human tumoral cell line of neural origin. […] Calcium flux into these cells may be induced by stimulation with elevated potassium concentrations. The L-channel component of calcium flux may be blocked by adding 5 μM nitrendipine. The remaining component of calcium entry into the IMR-32 cells is due to calcium flux through N-type calcium channels. Intracellular calcium concentrations are measured using the fluorescent calcium indicator Indo-1. The effect of drug concentration on calcium uptake is studied.
The IMR-32 cell line was obtained from the American Type Culture Collection (Rockville, Md.). Cells were grown in Eagle's Minimum Essential Medium with Earle's salts supplemented with 10% fetal bovine serum, 2 mM L-Gln and antibiotic/antimycotic mixture (Gibco). […] After 7 to 13 days of differentiation, cells were detached using 0.5 mM EDTA and loaded with 5 μM Indo-1 acetoxymethyl ester (Molecular Probes, Eugene, Oreg.) at 30° C. for 45 minutes. Loaded cells were washed twice, resuspended (˜10^7 cells/mL) in assay buffer (10 mM HEPES/Tris pH 7.4 in Hank's Balanced Salt Solution without bicarbonate or phenol red containing 0.5% bovine serum albumin) and kept on ice until use. Fluorescence measurements were carried out in a Photon Technology International (PTI, South Brunswick, N.J.) Model RF-F3004 spectrofluorometer with dual emission monochromators using excitation at […] and emission at 400 and 490 nm. The instrument was equipped with a thermostated cuvette holder with stirring capabilities as well as with a computer-controlled pump which allowed for reagent addition during measurement. Instrument control and data collection was done by PTI's OSCAR software running on an IBM compatible computer. Different concentrations of the test compounds (60 μL in dimethyl sulfoxide) were added to 5.94 mL of assay buffer containing approximately 3×10^6 loaded cells, and 5 μM Nitrendipine (in […] EtOH) to block L-type Ca^2+ channels. Samples were incubated for 10 minutes at 30° C. and then aliquoted into three 10×10 mm disposable acrylic cuvettes. Emission signals at 400 and 490 nm were acquired from each cuvette at 30° C. for 50 seconds. At 20 seconds after the start of reading, cells were depolarized by the addition of 160 μL of stimulation solution (1 M KCl, 68 mM CaCl2) to the cuvette via the computer-controlled pump. Ratio of dual emission signals (400 nm/490 nm), which is proportional to intracellular Ca^2+ concentration, was plotted against time, and the difference between maximal response after stimulation and basal value (before stimulation) was determined. Values obtained in this way were plotted as a function of drug concentration. IC50 values of test compounds were calculated by fitting a four-parameter logistic function to the data using the least squares method.

[2] = system: DBA/2 mice; assay: Audiogenic seizure (anticonvulsant) test in DBA/2 mice; format: in vivo; details: Mus musculus, intravenous, sound-induced tonic seizures, tested 15 or 45 minutes after injection, read-out: DBA/2 mice % Protection
Experimental: In vivo Biological Protocol:
A compound of the present invention was dissolved in water using 10% (weight/volume) Emulphor (GAF Corp., Wayne, N.J.) surfactant. Substances were administered by intravenous injection into the retro-orbital venous sinus. All testing was performed 15 minutes or 45 minutes after drug injection. All the male mice, 3-4 weeks old were obtained from Jackson Laboratories Bar Harbour, Me. Immediately before anticonvulsant testing, mice were placed upon a wire mesh, 4 inches square suspended from a steel rod. The square was slowly inverted through 180 degrees and mice observed for 30 seconds. Any mouse falling from the wire mesh was scored as ataxia.
Mice were placed into an enclosed acrylic plastic chamber (21 cm height, approximately 30 cm diameter) with a high-frequency speaker (4 cm diameter) in the center of the top lid. An audio signal generator (Protek model B-810) was used to produce a continuous sinusoidal tone that was swept linearly in frequency between 8 kHz and 16 kHz once each 10 msec. The average sound pressure level (SPL) during stimulation was approximately 100 dB at the floor of the chamber. Mice were placed within the chamber and allowed to acclimatize for 1 minute. DBA/2 mice in the vehicle-treated group responded to the sound stimulus (applied until tonic extension occurred, or for a maximum of 60 sec) with a characteristic seizure sequence consisting of wild running followed by clonic seizures, and later by tonic extension, and finally by respiratory arrest and death in 80% or more of the mice. In vehicle-treated mice, the entire sequence of seizures to respiratory arrest lasts approximately 15-20 seconds.
The incidence of all the seizure phases in the drug-treated and vehicle-treated mice was recorded, and the occurrence of tonic seizures were used for calculating anticonvulsant ED50 values by probit analysis. Mice were used only once for testing at each time and dose point.

[3] = 1 μM compound, 5 μM nitrendipine
[4] = 10 μM compound, 5 μM nitrendipine

Compound | IC50 [1] [µM] | inhibition at 1 µM [1, 3] [%] | inhibition at 10 µM [1, 4] [%] | responders at 30 mg/kg [2] [%] | further results
CC(C)=CCN(c1ccc(OCc2ccccc2)cc1)C1CCN(C(=O)[C@H](CC(C)C)N(C)C)CC1 [Example 23, (S)-1-{4-[(4-Benzyloxy-phenyl)-(3-methyl-but-2-enyl)-amino]-piperidin-1-yl}-2-dimethylamino-4-methyl-pentan-1-one] | 0.65 | – | – | – | responders at 10 mg/kg [2]: 40%
CC(C)=CCN(CC(C)(C)NC(=O)[C@H](CC(C)C)NC(=O)N1CCCCCC1)c1ccc(OCc2ccccc2)cc1 [Example 1] | 0.26 | – | – | 60 | –
CC(C)=CCN(c1ccc(OCc2ccccc2)cc1)C1CCN(C[C@@H](N)CC(C)C)CC1 [Example 47, (S)-[1-(2-Amino-4-methyl-pentyl)-piperidin-4-yl]-(4-benzyloxy-phenyl)-(3-methyl-but-2-enyl)-amine] | – | 44 | 100 | – | responders at 10 mg/kg [2]: 80%
CC(C)CC(NC(=O)N1CCCCCC1)C(=O)N1CCC(N(CCC(C)O)c2ccc(OCc3ccccc3)cc2)CC1 (stereo not drawn) [Example 32, Azepane-1-carboxylic acid (1-{4-[(4-benzyloxy-phenyl)-(3-hydroxy-butyl)-amino]-piperidine-1-carbonyl}-3-methyl-butyl)-amide] | 4.6 | – | – | 60 | –
CC(C)=CCN(c1ccc(OCc2ccccc2)cc1)C1CCN(C(=O)[C@H](CC(C)C)NCCC(C)C)CC1 [Example 25, (S)-1-{4-[(4-Benzyloxy-phenyl)-(3-methyl-but-2-enyl)-amino]-piperidin-1-yl}-4-methyl-2-(3-methyl-butylamino)-pentan-1-one] | 0.48 | – | – | 80 | –
CCC(C)[C@H](N)C(=O)N1CCC(N(CC=C(C)C)c2ccc(OCc3ccccc3)cc2)CC1 (stereo partly drawn) [Example 22, (S)-2-Amino-1-{4-[(4-benzyloxy-phenyl)-(3-methyl-but-2-enyl)-amino]-piperidin-1-yl}-3-methyl-pentan-1-one] | – | 39 | 90 | – | responders at 10 mg/kg [2]: 100%
CC(C)=CCN(c1ccc(OCc2ccccc2)cc1)C1CCN(C(=O)[C@H](CC(C)C)NC2CCCCC2)CC1 [Example 26, (S)-1-{4-[(4-Benzyloxy-phenyl)-(3-methyl-but-2-enyl)-amino]-piperidin-1-yl}-2-cyclohexylamino-4-methyl-pentan-1-one] | 0.51 | – | – | – | –
CC(C)=CCN(C[C@H](C)NC(=O)[C@H](CC(C)C)NCCC(C)C)c1ccc(OCc2ccccc2)cc1 (relative stereo) [Example 16, [S-(R*,R*)]-4-Methyl-2-(3-methyl-butylamino)-pentanoic acid {2-[(4-benzyloxy-phenyl)-(3-methyl-but-2-enyl)-amino]-1-methyl-ethyl}-amide] | – | – | – | – | IMR 32 % of Blockade @ 1 μM [1, 3]: 36%; IMR 32 % of Blockade @ 10 μM [1, 4]: 86%
CC(C)=CCN(c1ccc(OCc2ccccc2)cc1)C1CCN(C(=O)[C@H](CC(C)C)NCc2ccc[nH]2)CC1 [Example 27, (S)-1-{4-[(4-Benzyloxy-phenyl)-(3-methyl-but-2-enyl)-amino]-piperidin-1-yl}-4-methyl-2-[(1H-pyrrol-2-ylmethyl)-amino]-pentan-1-one] | 0.39 | – | – | – | –
CC(C)=CCN(c1ccc(OCc2ccccc2)cc1)C1CCN(C(=O)[C@H](N)CC(C)C)CC1 [Example 21, (R)-2-Amino-1-{4-[(4-benzyloxy-phenyl)-(3-methyl-but-2-enyl)-amino]-piperidin-1-yl}-4-methyl-pentan-1-one] | – | 43 | 92 | – | –

Second part, led by results:

IC50 [1] [µM] | inhibition at 1 µM [1, 3] [%] | inhibition at 10 µM [1, 4] [%] | Compound | responders at 30 mg/kg [2] [%] | further results
0.49 | – | – | CC(C)CCN(c1ccc(NCc2ccc(N(C)C)cc2)cc1)C1CCN(C(=O)[C@H](CC(C)C)NC(=O)N2CCCCCC2)CC1 [Example 41, (S)-Azepane-1-carboxylic acid (1-{4-[[4-(4-dimethylamino-benzylamino)-phenyl]-(3-methyl-butyl)-amino]-piperidine-1-carbonyl}-3-methyl-butyl)-amide] | 20 | –
1.8 | – | – | CC(C)CCN(c1ccc(NCCC(C)O)cc1)C1CCN(C(=O)[C@H](CC(C)C)NC(=O)N2CCCCCC2)CC1 (stereo partly drawn) [Example 38, (S)-Azepane-1-carboxylic acid (1-{4-[[4-(3-hydroxy-butylamino)-phenyl]-(3-methyl-butyl)-amino]-piperidine-1-carbonyl}-3-methyl-butyl)-amide] | 60 | –
0.18 | – | – | CC(C)CCN(c1ccc(NCCC(C)(C)C)cc1)C1CCN(C(=O)[C@H](CC(C)C)NC(=O)N2CCCCCC2)CC1 [Example 36, (S)-Azepane-1-carboxylic acid (1-{4-[[4-(3,3-dimethyl-butylamino)-phenyl]-(3-methyl-butyl)-amino]-piperidine-1-carbonyl}-3-methyl-butyl)-amide] | 80 | –
– | 50 | 100 | CC(C)CCN(c1ccc(OCc2ccccc2)cc1)C1CCN(C(=O)[C@@H](N)CC(C)C)CC1 [Example 44, (S)-2-Amino-1-{4-[(4-benzyloxy-phenyl)-(3-methyl-butyl)-amino]-piperidin-1-yl}-4-methyl-pentan-1-one] | – | responders at 10 mg/kg [2]: 20%
0.69 | – | – | CC(C)CCN(c1ccc(NCc2ccc(O)cc2)cc1)C1CCN(C(=O)[C@H](CC(C)C)NC(=O)N2CCCCCC2)CC1 [Example 42, (S)-Azepane-1-carboxylic acid (1-{4-[[4-(4-hydroxy-benzylamino)-phenyl]-(3-methyl-butyl)-amino]-piperidine-1-carbonyl}-3-methyl-butyl)-amide] | 20 | –
– | 40 | 100 | CC(C)=CCN(c1ccc(OCc2ccccc2)cc1)C1CCCN(C(=O)[C@@H](N)CC(C)C)C1 (mixture of isomers) [Example 45, (S, R/S)-2-Amino-1-{3-[(4-benzyloxy-phenyl)-(3-methyl-but-2-enyl)-amino]-piperidin-1-yl}-4-methyl-pentan-1-one] | – | –
– | 41 | 91 | CC(C)=CCN(c1ccc(OCc2ccccc2)cc1)C1CCCN(C(=O)[C@H](CC(C)C)NC(=O)N2CCCCCC2)C1 (mixture of isomers) [Example 46, (S,R/S)-Azepane-1-carboxylic acid (1-{3-[(4-benzyloxy-phenyl)-(3-methyl-but-2-enyl)-amino]-piperidine-1-carbonyl}-3-methyl-butyl)-amide] | – | –
0.29 | – | – | CC(C)CCN(c1ccc(NCC2CCCCC2)cc1)C1CCN(C(=O)[C@H](CC(C)C)NC(=O)N2CCCCCC2)CC1 [Example 37, (S)-Azepane-1-carboxylic acid (1-{4-[[4-(Cyclohexylmethyl-amino)-phenyl]-(3-methyl-butyl)-amino]-piperidine-1-carbonyl}-3-methyl-butyl)-amide] | – | –
